# Values of other authors as cited in patent publication US20150252306A1, “COMPOSITIONS COMPRISING A PUNGENT AGENT” (The Procter & Gamble Company, priority 2014, published 2015).
# Settings: Scoville heat units, given for comparison
smiles,measurement,value
COc1cc(CNC(=O)CCCC/C=C/C(C)C)ccc1O [capsaicin],pungency level,about 16 000 000 SHU
